This series is described as follows: solvent given as SMILES.

The compound `CCCCCCOc1ccc(N(c2ccc(OCCCCCC)cc2)c2ccc(-c3sc(-c4ccc(N(c5ccc(OCCCCCC)cc5)c5ccc(OCCCCCC)cc5)cc4)c4nc(-c5ccccc5)c(-c5ccccc5)nc34)cc2)cc1` yielded an absorption maximum (in C1CCOC1) of 601 nm; an absorption maximum (in CC(C)=O) of 592 nm; an absorption maximum (in CCOC(C)=O) of 594 nm; an absorption maximum (in CCOCC) of 600 nm; an absorption maximum (in CN(C)C=O) of 598 nm; an absorption maximum (in Cc1ccccc1) of 600 nm. For the same compound, the absorption maximum is given as 601 nm (in ClC(Cl)Cl) and 600 nm (in ClCCl).
Under “in ClC(Cl)Cl”, `CC(C)(C)c1ccc2c(c1)c1cc(C(C)(C)C)ccc1n2-c1ccc2oc3nc4oc5cc(C(F)(F)F)ccc5c4cc3c2c1` yielded an absorption maximum of 346 nm.
In turn, `C[n+]1ccc2c(ccc3c[n+](C)ccc32)c1` yielded an absorption maximum (in CC#N) of 387 nm.
The compound `CCOC(=O)/C=C/c1cc2ccc(-c3cn(Cc4ccccc4)nn3)cc2oc1=O` showed an absorption maximum (in CCO) of 358 nm.
With `CCn1c2ccccc2c2cc(C#Cc3cc(C#Cc4ccc5c(c4)c4ccccc4n5CC)nc(S(C)(=O)=O)n3)ccc21`, the absorption maximum reads like this: (in C1CCOC1) 408 nm; (in CCOC(C)=O) 405 nm; (in CN(C)C=O) 415 nm; (in Cc1ccccc1) 411 nm; (in ClCCl) 417 nm.
For `COc1cccc(-n2c(-c3ccc(F)cc3)nc(C)c2C)c1`, the absorption maximum is, setting by setting: (in CCCCCC) 284 nm; (in CCCCO) 289 nm; (in CCO) 290 nm; (in CCOC(C)=O) 288 nm; (in ClCCl) 284 nm.
`CCCN1c2ccccc2Sc2cc(C3=C4C=CC=[N+]4[B-](F)(F)n4cccc43)ccc21` yielded an absorption maximum (in ClCCl) of 499 nm.
`O=C1OC(=O)c2ccc(N(c3ccccc3)c3ccc4ccc5cccc6ccc3c4c56)c3cccc1c23` came in with an absorption maximum (in C1CCOC1) of 455 nm, an absorption maximum (in CCCCCC) of 447 nm, an absorption maximum (in ClCCl) of 465 nm and an absorption maximum (in c1ccccc1) of 457 nm.
The compound `O=C(O)C1=C(C(=O)O)C2=C[C@H]3c4ccccc4[C@]2(S1)c1ccccc13` yielded an absorption maximum (in ClCCl) of 410 nm.
Where the note is “in ClCCl”, `COc1ccc(C(=O)NC(C)(C)C)c2c1ccc1c3ccccc3c3ccccc3c12` gave an absorption maximum of 334 nm.
The same measure, in the same setting: next, `CC(C)c1cccc(C(C)C)c1N1C(=O)c2cccc3c(Oc4ccc(C(C)(C)c5ccccc5)cc4)ccc(c23)C1=O`: 365 nm.
In the case of `CCCCOC(=O)/C(C#N)=C1\C(=CC2=[N+](C)c3ccccc3C2(C)C)C([O-])=C1C=C1N(C)c2ccccc2C1(C)C`, the absorption maximum (in ClC(Cl)Cl) turned out to be 691 nm.
For the compound `COc1ccc(-c2nc(-c3ccccc3)c(N(c3ccccc3)c3ccccc3)s2)cc1`, the absorption maximum (in ClC(Cl)Cl) worked out at 357 nm.
The compound `COC(=O)c1c(-c2cc3ccccc3oc2=O)nn(-c2cccc(C)c2)c1C(=O)OC` showed an absorption maximum (in ClCCl) of 324 nm.
For the compound `CCCCCCC(CCCCCC)N1C(=O)c2cccc3c(-c4ccc(OC)c5ccccc45)ccc(c23)C1=O`, the absorption maximum was found to be 322.6 nm (in CCCCCC); 322.6 nm (in CCCCCCCCCCCCCC); 323.8 nm (in CCCCCCCCCCCO); 323.6 nm (in CCCCO); 323.8 nm (in CN(C)C=O); 324 nm (in Cc1ccccc1). Moreover, the absorption maximum (in ClC(Cl)Cl) was 325 nm.
For the setting “in CCO”, `Nc1cc(F)c(C(=O)c2cc(F)c(F)cc2F)cc1F` yielded an absorption maximum of 335 nm.
Consider `CCN(CC)c1ccc2c(c1)oc(=O)c1c(C)nc3c(c(-c4ccccc4)nn3C)c12`, for which the absorption maximum (in ClCCl) turned out to be 408 nm.
As for `CN(C)c1ccc(/C=C/c2nc3cc(Br)ccc3nc2-c2ccccc2)cc1`, the absorption maximum is reported as 445 nm (in C1COCCO1), 448 nm (in CC#N) and 453 nm (in ClCCl).
Compound `CC(C)[Si](C#Cc1c2cc3ccccc3cc2c(C#Cc2ccc(C(F)(F)F)cc2)c2cc3ccccc3cc12)(C(C)C)C(C)C` returned an absorption maximum (in ClCCl) of 654 nm.
With `Cc1nc2c(cc3c4c(cccc42)C(=O)OC3=O)o1`, the absorption maximum (in CCO) stood at 360 nm.
Turning to `CCCCCCc1ccc2c3c(ccc2c1)O[B-](c1ccccc1)(c1ccccc1)[N+](c1ccc([N+]2=Cc4c(ccc5cc(CCCCCC)ccc45)O[B-]2(c2ccccc2)c2ccccc2)cc1)=C3`, the absorption maximum (in C1CCOC1) worked out at 455 nm, the absorption maximum (in CC#N) amounted to 452 nm, the absorption maximum (in Cc1ccccc1) turned out to be 462 nm and the absorption maximum (in ClCCl) is listed as 459 nm.
`CCCCN(CCCC)c1ccc2c(c1)C#CC#Cc1cc(C(F)(F)F)ccc1C#Cc1cc(c3cc1C#Cc1ccc(N(CCCC)CCCC)cc1C#CC#Cc1cc(C(F)(F)F)ccc1C#C3)C#C2`: under “in ClCCl”, the absorption maximum is given as 477 nm.
As to `C[Si](C)(C)C#Cc1cc2ccc3cc(C#C[Si](C)(C)C)cc4ccc(c1)c2c34`, the absorption maximum (in Cc1ccccc1) was 407 nm.
For the compound `O=C1C=C(Nc2ccc(F)cc2F)C(=O)c2ccccc21`, the absorption maximum reads like this: (in CCCCCC) 439 nm; (in CO) 443 nm.
Consider `CCC1=C(C)C2=C(C)c3c(I)c(I)c(I)n3[B-](F)(F)[N+]2=C1C`, for which the absorption maximum came out at 531.5 nm (in C1CCCCC1); 517.5 nm (in CC(C)=O); 522 nm (in CCO); 521 nm (in CCOC(C)=O); 519.5 nm (in CO); 511.5 nm (in OCC(F)(F)F).
In the case of `CCC[n+]1ccc(/C=C/c2ccc(N(C)C)cc2)cc1`, the absorption maximum amounted to 463 nm (in C1COCCO1); 485 nm (in CC(C)O); 490 nm (in CCCCO); 487 nm (in CCCO); 484 nm (in CCO); 479 nm (in CO). The same compound had an absorption maximum (in CS(C)=O) of 476 nm, an absorption maximum (in ClC(Cl)Cl) of 496 nm, an absorption maximum (in ClCCl) of 513 nm and an absorption maximum (in c1ccccc1) of 477 nm.
`COc1ccc(C2=C(c3ccc(OC)cc3)C(c3ccc(OC)cc3)=[N+]3C2=C(c2ccc(OC)cc2)c2c(-c4ccc(OC)cc4)c(-c4ccc(OC)cc4)c(-c4ccc(OC)cc4)n2[B-]3(F)F)cc1` displayed an absorption maximum (in C1CCOC1) of 597 nm.
For the compound `COC(=O)C1=C(C(=O)OC)C2(c3ccccc3-c3ccccc32)[C@@H](c2ccc(C)cc2)C=C2c3cc(OC)c(OC)cc3CCN21`, the absorption maximum (in ClCCl) came to 311 nm.
As to `CCCCCCOc1cc2[nH]c(cc2CCOC)c2nc(ccc3[nH]c(cc3CCOC)c3nc1C(CCOC)=C3)C(CCOC)=C2`, the absorption maximum (in Cc1ccccc1) is 684 nm.
Regarding `CCOC(=O)CN(CC(=O)OCC)c1ccc(-c2cc(-c3ccccn3)nc(-c3ccccn3)c2)cc1`, the absorption maximum reads like this: (in CC#N) 328 nm; (in CCOC(C)=O) 328 nm; (in CN(C)C=O) 332 nm; (in CS(C)=O) 336 nm; (in c1ccccc1) 328 nm.
Consider `Cc1ccc(C)n1-c1cccc(C#N)c1`, for which, where the note is “in ClCCl”, the absorption maximum stood at 259 nm.
For the compound `COc1cc2c(cc1-c1ccc(Cl)cc1)Cc1c3c(c4c(c1-2)-c1cc(OC)c(-c2ccc(Cl)cc2)cc1C4)C(=O)N(CCC(C)C)C3=O`, the absorption maximum (in C1CCOC1) is given as 406 nm.
For the setting “in Cc1ccccc1”, `c1ccc2c(c1)CCc1ccccc1N2c1c2ccccc2cc2ccccc12` yielded an absorption maximum of 426 nm.
`Cc1cc(C)c2nc3[nH]c(=O)[nH]c(=O)c3nc2c1`: the absorption maximum (in CC#N) came to 388 nm.
Where the note is “in Cc1ccccc1”, `CC1(C)c2ccccc2N(c2ccc(-c3ccc4c(c3)c3cc(-c5ccc(N6c7ccccc7C(C)(C)c7ccccc76)cc5)ccc3c3nc(C#N)c(C#N)nc43)cc2)c2ccccc21` showed an absorption maximum of 405 nm.
Compound `CC1=CC(Br)=CN2C[n+]3cc(Br)cc(C)c3N=C12` returned an absorption maximum (in CO) of 436 nm.
As for `c1ccc2c(c1)ccc1c3ccccc3ccc21`, the absorption maximum (in ClCCl) is recorded as 322 nm.
On the same count and under the same terms, with `CCCCCCCCOc1cc(/C=C/c2ccncc2)c(OCCCCCCCC)cc1/C=C/c1ccncc1` the figure was 398 nm.
In turn, `COC(=O)/C=C/c1sc(-c2ccc(N(C)C)cc2)c(-c2ccc(OC)cc2)c1O` gave an absorption maximum (in CC#N) of 451 nm.
`COc1ccc(-c2cc3c(s2)c(C(C)=O)cc(=O)n3Cc2ccccc2)cc1`: the absorption maximum came to 420 nm (in CC#N) and 426 nm (in ClCCl).
As for `CN(C)c1ccc2cc(C(/C=C/c3cn(C)c4ccccc34)=C(C#N)C#N)c(=O)oc2c1`, the absorption maximum is, setting by setting: (in C1CCOC1) 455 nm; (in C1COCCO1) 452 nm; (in CN(C)C=O) 471 nm; (in CS(C)=O) 477 nm; (in ClCCl) 461 nm.
Consider `CCOC(=O)C1=C(N)n2c(=O)c3ccccc3c(=O)n2C1c1ccc([N+](=O)[O-])cc1` (centres undefined), for which, for the setting “in CS(C)=O”, the absorption maximum was determined as 358 nm.
Where the note is “in ClCCl”, `COc1ccc(-c2c3cc4ccccc4cc3c(C#Cc3ccccc3)c3cc4ccccc4cc23)cc1` gave an absorption maximum of 635 nm.
Regarding `CCOC(=O)CN1C(=O)C2=C(c3ccccc3)N(CC(=O)OCC)C(=O)C2=C1c1ccccc1`, the absorption maximum runs as follows: (in CC#N) 454 nm; (in CS(C)=O) 460 nm; (in Cc1ccccc1) 462 nm.
Compound `CCCCC1(c2ccccc2)Nc2c(-c3ccc(N(C)c4ccccc4)cc3)ccc(-c3ccc(N(C)c4ccccc4)cc3)c2N=C1c1ccccc1` (centres undefined) returned an absorption maximum (in ClC(Cl)Cl) of 380 nm.
`Cc1cc(C)c(B(c2cc(-c3ccc(N(C)C)cc3)sc2-c2sc(-c3ccc(N(C)C)cc3)cc2P(=O)(c2ccccc2)c2ccccc2)c2c(C)cc(C)cc2C)c(C)c1` registered an absorption maximum (in CO) of 435 nm.
`CC/[NH+]=c1\cc2oc3cc(NCCC(=O)NC(C)C(=O)OC)c4ccccc4c3nc-2cc1C` (centres undefined) gave an absorption maximum (in CCO) of 590 nm.
`c1ccc2c(c1)c1ccccc1n2-c1ccc(-c2cc3ccc(-c4ccc5cc(-c6ccc(-n7c8ccccc8c8ccccc87)cc6)oc5c4)cc3o2)cc1`: the absorption maximum was 365 nm (in Cc1ccccc1) and 376 nm (in c1ccc2c(c1)c1ccccc1n2-c1ccc(-c2ccc(-n3c4ccccc4c4ccccc43)cc2)cc1).
